Results as given in US11149023B2, “Substituted triazole derivatives and uses thereof” (Bayer Pharma Aktiengesellschaft, priority 2017, dated 2021).

Key:
human V1a receptor = human V1a receptor (Homo sapiens (Human), UniProt P37288); assay: Cellular in vitro assay for determining vasopressin receptor activity (V1a, aequorin luminescence); format: cell-based; settings: for IC50: CHO cell line transfected with human V1a receptor, [Arg8]-vasopressin at EC50 concentration, read-out: IC50 hV1a; for ratio IC50 hV2/hV1a: selectivity, IC50 hV2 divided by IC50 hV1a
human V2 receptor = human V2 receptor (Homo sapiens (Human), UniProt P30518); assay: Cellular in vitro assay for determining vasopressin receptor activity (V2, CRE-luciferase); format: cell-based; settings: CHO cell line transfected with human V2 receptor; [Arg8]-vasopressin at EC50 concentration; read-out: IC50 hV2
Description: B-1. Cellular In Vitro Assay for Determining Vasopressin Receptor Activity
The identification of agonists and antagonists of the V1a and V2 vasopressin receptors from humans, rats and dogs as well as the quantification of the activity of the compounds of the invention is carried out using recombinant cell lines. These cell lines originally derive from a hamster's ovary epithelial cell (Chinese Hamster Ovary, CHO K1, ATCC: American Type Culture Collection, Manassas, Va. 20108, USA). The test cell lines constitutively express the human, rat or dog V1a or V2 receptors. In case of the Gαq-coupled V1a receptors, cells are also stably transfected with a modified form of the calcium-sensitive photoproteins aequorin (human and rat V1a) or obe-lin (dog V1a), which, after reconstitution with the cofactor coelenterazine, emit light when there are increases in free calcium concentrations [Rizzuto R, Simpson A W, Brini M, Pozzan T, Nature 358, 325-327 (1992); Illarionov B A, Bondar V S, Illarionova V A, Vysotski E S, Gene 153 (2), 273-274 (1995)]. The resulting vasopressin receptor cells react to stimulation of the recombinantly expressed Via receptors by intracellular release of calcium ions, which can be quantified by the resulting photoprotein luminescence. The Gs-coupled V2 receptors are stably transfected into cell lines expressing the gene for firefly luciferase under control of a CRE-responsible promoter. Activation of V2 receptors induces the activation of the CRE-responsive promoter via cAMP increase, thereby inducing the expression of firefly luciferase. The light emitted by photoproteins of V1a cell lines as well as the light emitted by firefly luciferase of V2 cell lines corresponds to the activation or inhibition of the respective vasopressin receptor. The bioluminescence of the cell lines is detected using a suitable luminometer [Milligan G, Marshall F, Rees S, Trends in Pharmacological Sciences 17, 235-237 (1996)].
Vasopressin V2 Receptor Cell Lines:
On the day before the assay, the cells are plated out in culture medium (DMEM/F12, 2% FCS, 2 mM glutamine, 10 mM HEPES) in 384-well microtiter plates and kept in a cell incubator (96% humidity, 5% v/v CO2, 37° C.). On the day of the assay, test compounds in various concentrations and the agonist [Arg^8]-vasopressin at EC50 concentration are added together to the wells, and plates are incubated for 3 hours in a cell incubator. Upon addition of the cell lysis reagent Triton™ and the substrate luciferin, luminescence of firefly luciferase is measured in a luminometer.
Table 1A below lists individual IC50 values for the compounds of the invention (including racemic mixtures as well as separated enantiomers) that were obtained from cell lines transfected with the human Via or V2 receptor: […]

Chain of human V2 receptor (P30518 whole entry): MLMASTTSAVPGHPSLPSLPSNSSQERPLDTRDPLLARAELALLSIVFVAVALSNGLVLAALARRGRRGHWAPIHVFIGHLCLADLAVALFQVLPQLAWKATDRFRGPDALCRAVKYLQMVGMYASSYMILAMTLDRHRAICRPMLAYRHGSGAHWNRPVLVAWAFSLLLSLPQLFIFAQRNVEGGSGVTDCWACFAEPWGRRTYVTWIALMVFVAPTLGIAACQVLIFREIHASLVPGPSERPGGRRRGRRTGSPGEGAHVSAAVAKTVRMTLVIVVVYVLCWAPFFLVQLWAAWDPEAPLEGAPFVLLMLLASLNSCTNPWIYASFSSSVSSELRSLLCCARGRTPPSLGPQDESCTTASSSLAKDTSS
Chain of human V1a receptor (P37288 whole entry): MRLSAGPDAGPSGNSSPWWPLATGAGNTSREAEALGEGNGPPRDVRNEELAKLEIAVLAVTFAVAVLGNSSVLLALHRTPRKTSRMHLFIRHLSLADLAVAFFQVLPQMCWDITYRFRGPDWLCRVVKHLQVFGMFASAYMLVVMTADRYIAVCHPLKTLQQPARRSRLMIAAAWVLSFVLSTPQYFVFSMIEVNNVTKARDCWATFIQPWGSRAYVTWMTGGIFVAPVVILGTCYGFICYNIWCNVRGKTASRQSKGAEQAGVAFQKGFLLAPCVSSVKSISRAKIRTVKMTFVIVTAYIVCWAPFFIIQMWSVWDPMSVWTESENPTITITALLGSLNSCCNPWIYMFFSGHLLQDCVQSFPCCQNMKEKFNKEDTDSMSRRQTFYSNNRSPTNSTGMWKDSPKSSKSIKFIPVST

SMILES	IC50 (human V1a receptor)	ratio IC50 hV2/hV1a (human V1a receptor)	IC50 (human V2 receptor)
O=C(NC(Cn1c(-c2ccc(Cl)cc2)nn(Cc2ncn(-c3ncccc3Cl)n2)c1=O)C(F)(F)F)C1(C(F)(F)F)CC1 (racemic) [Example 41, N-{3-[3-(4-Chlorophenyl)-1-{[1-(3-chloropyridin-2-yl)-1H-1,2,4-triazol-3-yl]methyl}-5-oxo-1,5-dihydro-4H-1,2,4-triazol-4-yl]-1,1,1-trifluoropropan-2-yl}-1-(trifluoromethyl)cyclopropane-carboxamide]	1.5 nM	38.0	57 nM
CS(=O)(=O)CC(=O)NC(Cn1c(-c2ccc(Cl)cc2)nn(Cc2ncn(-c3ncccc3Cl)n2)c1=O)C(F)(F)F (racemic) [Example 44, N-{3-[3-(4-Chlorophenyl)-1-{[1-(3-chloropyridin-2-yl)-1H-1,2,4-triazol-3-yl]methyl}-5-oxo-1,5-dihydro-4H-1,2,4-triazol-4-yl]-1,1,1-trifluoropropan-2-yl}-2-(methylsulfonyl)acetamide]	1.75 nM	68.6	120 nM
O=C(NC(Cn1c(-c2ccc(Cl)cc2)nn(Cc2ncn(-c3ncccc3Cl)n2)c1=O)C(F)(F)F)[C@@H]1C[C@H](F)CN1 (mixture of isomers) [Example 48, N-{3-[3-(4-Chlorophenyl)-1-{[1-(3-chloropyridin-2-yl)-1H-1,2,4-triazol-3-yl]methyl}-5-oxo-1,5-dihydro-4H-1,2,4-triazol-4-yl]-1,1,1-trifluoropropan-2-yl}-4-fluoro-prolinamide]	5.4 nM		305 nM
O=C(NC(Cn1c(-c2ccc(Cl)cc2)nn(Cc2ncn(-c3ncccc3Cl)n2)c1=O)C(F)(F)F)[C@@H]1C[C@@H](F)CN1 (mixture of isomers) [Example 49, N-{3-[3-(4-Chlorophenyl)-1-{[1-(3-chloropyridin-2-yl)-1H-1,2,4-triazol-3-yl]methyl}-5-oxo-1,5-dihydro-4H-1,2,4-triazol-4-yl]-1,1,1-trifluoropropan-2-yl}-4-fluoro-prolinamide]	3.35 nM		378 nM
O=C(NC(Cn1c(-c2ccc(Cl)cc2)nn(Cc2ncn(-c3ncccc3Cl)n2)c1=O)C(F)(F)F)c1ccc(Cl)s1 (racemic) [Example 52, 5-Chloro-N-{3-[3-(4-chlorophenyl)-1-{[1-(3-chloropyridin-2-yl)-1H-1,2,4-triazol-3-yl]methyl}-5-oxo-1,5-dihydro-4H-1,2,4-triazol-4-yl]-1,1,1-trifluoropropan-2-yl}thiophene-2-carboxamide]	2.8 nM	167.9	470 nM
O=C(NC(Cn1c(-c2ccc(Cl)cc2)nn(Cc2ncn(-c3ncccc3C(F)(F)F)n2)c1=O)C(F)(F)F)C1(C(F)(F)F)CC1 (racemic) [Example 58, N-{3-[3-(4-Chlorophenyl)-5-oxo-1-({1-[3-(trifluoromethyl)pyridin-2-yl]-1H-1,2,4-triazol-3-yl}methyl)-1,5-dihydro-4H-1,2,4-triazol-4-yl]-1,1,1-trifluoropropan-2-yl}-1-(trifluoromethyl)cyclopropane-1-carboxamide]	3 nM	40.2	120 nM
O=C(CCC(F)(F)F)NC(Cn1c(-c2ccc(Cl)cc2)nn(Cc2ncn(-c3ncccc3C(F)(F)F)n2)c1=O)C(F)(F)F (racemic) [Example 59, N-{3-[3-(4-Chlorophenyl)-5-oxo-1-({1-[3-(trifluoromethyl)pyridin-2-yl]-1H-1,2,4-triazol-3-yl}methyl)-1,5-dihydro-4H-1,2,4-triazol-4-yl]-1,1,1-trifluoropropan-2-yl}-4,4,4-trifluorobutanamide]	1.9 nM	39.5	75 nM
CC(F)(F)C(=O)NC(Cn1c(-c2ccc(Cl)cc2)nn(Cc2ncn(-c3ncccc3C(F)(F)F)n2)c1=O)C(F)(F)F (racemic) [Example 60, N-{3-[3-(4-Chlorophenyl)-5-oxo-1-({1-[3-(trifluoromethyl)pyridin-2-yl]-1H-1,2,4-triazol-3-yl}methyl)-1,5-dihydro-4H-1,2,4-triazol-4-yl]-1,1,1-trifluoropropan-2-yl}-2,2-difluoropropanamide]	18.5 nM	83.8	1550 nM
O=C(CF)NC(Cn1c(-c2ccc(Cl)cc2)nn(Cc2ncn(-c3ncccc3C(F)(F)F)n2)c1=O)C(F)(F)F (racemic) [Example 61, N-{3-[3-(4-Chlorophenyl)-5-oxo-1-({1-[3-(trifluoromethyl)pyridin-2-yl]-1H-1,2,4-triazol-3-yl}methyl)-1,5-dihydro-4H-1,2,4-triazol-4-yl]-1,1,1-trifluoropropan-2-yl}-2-fluoroacetamide]	50 nM	76.0	3800 nM
O=C(NC(Cn1c(-c2ccc(Cl)cc2)nn(Cc2ncn(-c3ncccc3C(F)(F)F)n2)c1=O)C(F)(F)F)C1CS(=O)(=O)C1 (racemic) [Example 62, N-{3-[3-(4-Chlorophenyl)-5-oxo-1-({1-[3-(trifluoromethyl)pyridin-2-yl]-1H-1,2,4-triazol-3-yl}methyl)-1,5-dihydro-4H-1,2,4-triazol-4-yl]-1,1,1-trifluoropropan-2-yl}-1,1-dioxo-1lambda^6-thietane-3-carboxamide]	1.6 nM	103.1	165 nM

The remaining lines, values ahead:

IC50 (human V1a receptor)	ratio IC50 hV2/hV1a (human V1a receptor)	IC50 (human V2 receptor)	SMILES
0.72 nM	82.2	58.8 nM	O=C(NC(Cn1c(-c2ccc(Cl)cc2)nn(Cc2ncn(-c3ncccc3C(F)(F)F)n2)c1=O)C(F)(F)F)C1CC(F)(F)C1 (racemic) [Example 63, N-{3-[3-(4-Chlorophenyl)-5-oxo-1-({1-[3-(trifluoromethyl)pyridin-2-yl]-1H-1,2,4-triazol-3-yl}methyl)-1,5-dihydro-4H-1,2,4-triazol-4-yl]-1,1,1-trifluoropropan-2-yl}-3,3-difluorocyclobutane-1-carboxamide]
1.2 nM	65.2	78.2 nM	CS(=O)(=O)CC(=O)NC(Cn1c(-c2ccc(Cl)cc2)nn(Cc2ncn(-c3ncccc3C(F)(F)F)n2)c1=O)C(F)(F)F (racemic) [Example 64, N-{3-[3-(4-Chlorophenyl)-5-oxo-1-({1-[3-(trifluoromethyl)pyridin-2-yl]-1H-1,2,4-triazol-3-yl}methyl)-1,5-dihydro-4H-1,2,4-triazol-4-yl]-1,1,1-trifluoropropan-2-yl}-2-(methanesulfonyl)acetamide]
9.1 nM	53.8	490 nM	N#CC1(C(=O)NC(Cn2c(-c3ccc(Cl)cc3)nn(Cc3ncn(-c4ncccc4C(F)(F)F)n3)c2=O)C(F)(F)F)CC1 (racemic) [Example 65, N-{3-[3-(4-Chlorophenyl)-5-oxo-1-({1-[3-(trifluoromethyl)pyridin-2-yl]-1H-1,2,4-triazol-3-yl}methyl)-1,5-dihydro-4H-1,2,4-triazol-4-yl]-1,1,1-trifluoropropan-2-yl}-1-cyanocyclopropane-1-carboxamide]
1.15 nM	49.6	57 nM	O=C(CC(F)(F)F)NC(Cn1c(-c2ccc(Cl)cc2)nn(Cc2ncn(-c3ncccc3C(F)(F)F)n2)c1=O)C(F)(F)F (racemic) [Example 67, N-{3-[3-(4-Chlorophenyl)-5-oxo-1-({1-[3-(trifluoromethyl)pyridin-2-yl]-1H-1,2,4-triazol-3-yl}methyl)-1,5-dihydro-4H-1,2,4-triazol-4-yl]-1,1,1-trifluoropropan-2-yl}-3,3,3-trifluoropropanamide]
6.15 nM	86.2	530 nM	COCC(=O)NC(Cn1c(-c2ccc(Cl)cc2)nn(Cc2ncn(-c3ncccc3C(F)(F)F)n2)c1=O)C(F)(F)F (racemic) [Example 68, N-{3-[3-(4-Chlorophenyl)-5-oxo-1-({1-[3-(trifluoromethyl)pyridin-2-yl]-1H-1,2,4-triazol-3-yl}methyl)-1,5-dihydro-4H-1,2,4-triazol-4-yl]-1,1,1-trifluoropropan-2-yl}-2-methoxyacetamide]
